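In this assay, cells in 96-well plates receive the compound at five concentrations for 48 hours. Endpoints are linearly interpolated between the surrounding concentrations. At the TGI there is no net growth.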
Key:
Test in all cases: inhibition of tumour cell growth, NCI panel, 48 h
[1] = system: MDA-N
[2] = system: MALME-3M melanoma
[3] = system: HL-60(TB) leukemia
[4] = system: TK-10 renal
[5] = system: SF-295 CNS
[6] = system: MCF7 breast
[7] = system: SK-MEL-5 melanoma
[8] = system: U251 CNS
[9] = system: T-47D breast
[10] = system: NCI-H522 lung
[11] = system: HT29 colon
[12] = system: SF-539 CNS
[13] = system: PC-3 prostate
[14] = system: KM12 colon
[15] = system: RPMI-8226 leukemia
[16] = system: CAKI-1 renal
[17] = system: EKVX NSCLC
[18] = system: UACC-257 melanoma
[19] = system: MOLT-4 leukemia
[20] = system: HCT-15 colon
[21] = system: OVCAR-3 ovarian
[22] = system: NCI-H23 lung
[23] = system: HOP-92 NSCLC
[24] = system: NCI-H226 lung
[25] = system: HCC-2998 colon
[26] = system: SK-MEL-2 melanoma
[27] = system: M14 melanoma
[28] = system: A549 NSCLC
[29] = system: RXF 393 renal
[30] = system: SR leukemia
[31] = system: COLO 205 colon
[32] = system: MDA-MB-231 breast
[33] = system: K-562 leukemia
[34] = system: SW-620 colon
[35] = system: LOX IMVI melanoma
[36] = system: SF-268 CNS
[37] = system: CCRF-CEM leukemia
[38] = system: 786-0 renal
[39] = system: OVCAR-5 ovarian
[40] = system: IGROV1 ovarian
[41] = system: SK-OV-3 ovarian
[42] = system: SN12C renal
[43] = system: SNB-75 CNS
[44] = system: A498 renal
[45] = system: NCI-H460 lung
[46] = system: UO-31 renal
[47] = system: HS 578T breast
[48] = system: HOP-62 NSCLC
[49] = system: NCI/ADR-RES ovarian
[50] = system: SK-MEL-28 melanoma
[51] = system: SNB-19 CNS
[52] = system: HCT-116 colon
[53] = system: OVCAR-8 ovarian
[54] = system: DU-145 prostate
[55] = system: UACC-62 melanoma
[56] = system: MDA-MB-435
[57] = system: ACHN renal
[58] = system: BT-549 breast
[59] = system: OVCAR-4 ovarian
[60] = system: DMS 273 small cell lung
[61] = system: KM20L2 colon
[62] = system: LXFL 529 NSCLC
[63] = system: DLD-1 colon
[64] = system: SNB-78 CNS
[65] = system: DMS 114 small cell lung
[66] = system: HOP-18 NSCLC
[67] = system: XF 498 CNS
[68] = system: M19-MEL melanoma

SMILES: C=C1C(=O)O[C@@H]2C[C@@]3(C)CCC[C@H](C)C3=C[C@H]12
- TGI [1]: 16.6 µM
- TGI [2]: 15.8 µM
- TGI [3]: 5.52 µM
- TGI [4]: 9.35 µM
- TGI [5]: 34.5 µM
- TGI [6]: 17.2 µM
- TGI [7]: 17.9 µM
- TGI [8]: 21.5 µM
- TGI [9]: 9.36 µM
- TGI [10]: 11.1 µM
- TGI [11]: 16.1 µM
- TGI [12]: 22.5 µM
- TGI [13]: 24.2 µM
- TGI [14]: 24.8 µM
- TGI [15]: 6.21 µM
- TGI [16]: 17.3 µM
- TGI [17]: 28.2 µM
- TGI [18]: 20.1 µM
- TGI [19]: 4.8 µM
- TGI [20]: 17.1 µM
- TGI [21]: 19.5 µM
- TGI [22]: 17.5 µM
- TGI [23]: 11.2 µM
- TGI [24]: 29.5 µM
- TGI [25]: 29.1 µM
- TGI [26]: 14.7 µM
- TGI [27]: 12.6 µM
- TGI [28]: 31 µM
- TGI [29]: 18.8 µM
- TGI [30]: 4.78 µM
- TGI [31]: 3.39 µM
- TGI [32]: 27.3 µM
- TGI [33]: 31.2 µM
- TGI [34]: 12.3 µM
- TGI [35]: 22.9 µM
- TGI [36]: 26.7 µM
- TGI [37]: 9.94 µM
- TGI [38]: 12.7 µM
- TGI [39]: 31.4 µM
- TGI [40]: 29.6 µM
- TGI [41]: 40.4 µM
- TGI [42]: 12.5 µM
- TGI [43]: 13.4 µM
- TGI [44]: 24.9 µM
- TGI [45]: 31.7 µM
- TGI [46]: 17.1 µM
- TGI [47]: 19.1 µM
- TGI [48]: 24.7 µM
- TGI [49]: 27.9 µM
- TGI [50]: 20.5 µM
- TGI [51]: 30.1 µM
- TGI [52]: 16.2 µM
- TGI [53]: 19.5 µM
- TGI [54]: 24.3 µM
- TGI [55]: 19.8 µM
- TGI [56]: 17.2 µM
- TGI [57]: 21.6 µM
- TGI [58]: 15.7 µM
- TGI [59]: 17.6 µM

SMILES: OC12c3ccccc3C1(N1CCOCC1)CCCCC21OCCCO1 (stereo not given)
- TGI [2]: > 100 µM
- TGI [3]: > 100 µM
- TGI [4]: > 100 µM
- TGI [5]: > 100 µM
- TGI [60]: > 100 µM
- TGI [7]: > 100 µM
- TGI [8]: > 100 µM
- TGI [10]: > 100 µM
- TGI [11]: > 100 µM
- TGI [61]: > 100 µM
- TGI [12]: > 100 µM
- TGI [14]: > 100 µM
- TGI [15]: > 100 µM
- TGI [16]: > 100 µM
- TGI [18]: > 100 µM
- TGI [19]: > 100 µM
- TGI [20]: > 100 µM
- TGI [21]: > 100 µM
- TGI [22]: > 100 µM
- TGI [62]: > 100 µM
- TGI [24]: > 100 µM
- TGI [63]: > 100 µM
- TGI [26]: > 100 µM
- TGI [27]: > 100 µM
- TGI [28]: > 100 µM
- TGI [29]: > 100 µM
- TGI [31]: > 100 µM
- TGI [64]: > 100 µM
- TGI [33]: > 100 µM
- TGI [35]: > 100 µM
- TGI [36]: > 100 µM
- TGI [65]: > 100 µM
- TGI [37]: > 100 µM
- TGI [38]: > 100 µM
- TGI [39]: > 100 µM
- TGI [40]: > 100 µM
- TGI [41]: > 100 µM
- TGI [42]: > 100 µM
- TGI [43]: > 100 µM
- TGI [66]: > 100 µM
- TGI [44]: > 100 µM
- TGI [45]: > 100 µM
- TGI [48]: > 100 µM
- TGI [50]: > 100 µM
- TGI [51]: > 100 µM
- TGI [52]: > 100 µM
- TGI [53]: > 100 µM
- TGI [55]: > 100 µM
- TGI [57]: > 100 µM
- TGI [59]: > 100 µM

SMILES: COc1ccc(N2C(=O)C3c4[nH]c5ccccc5c4C4CCCCCCCCCCC4C3C2=O)cc1 (stereo not given)
- TGI [2]: > 47.2 µM
- TGI [3]: 68.2 µM
- TGI [4]: > 73.2 µM
- TGI [5]: 39.4 µM
- TGI [60]: 18.6 µM
- TGI [7]: > 59.6 µM
- TGI [8]: 22.4 µM
- TGI [10]: > 49.1 µM
- TGI [11]: 18.9 µM
- TGI [61]: 11.5 µM
- TGI [12]: > 33.2 µM
- TGI [14]: > 57.3 µM
- TGI [15]: 43.2 µM
- TGI [16]: > 100 µM
- TGI [17]: > 52.8 µM
- TGI [18]: > 100 µM
- TGI [19]: 37.4 µM
- TGI [20]: 19.9 µM
- TGI [21]: 26.4 µM
- TGI [22]: > 33.1 µM
- TGI [23]: 45.2 µM
- TGI [62]: 23.7 µM
- TGI [24]: 17.7 µM
- TGI [25]: > 100 µM
- TGI [63]: > 39.9 µM
- TGI [26]: > 100 µM
- TGI [27]: 27.1 µM
- TGI [28]: 23.2 µM
- TGI [30]: > 20.3 µM
- TGI [67]: 28 µM
- TGI [31]: > 40.5 µM
- TGI [33]: > 78.3 µM
- TGI [34]: 18.7 µM
- TGI [35]: > 46.6 µM
- TGI [36]: > 30.5 µM
- TGI [65]: > 47.5 µM
- TGI [68]: > 52.2 µM
- TGI [37]: > 43.7 µM
- TGI [38]: 8.17 µM
- TGI [39]: > 64.6 µM
- TGI [40]: > 48.7 µM
- TGI [41]: > 57.5 µM
- TGI [42]: 19.9 µM
- TGI [43]: 55 µM
- TGI [66]: 6.53 µM
- TGI [44]: 25.5 µM
- TGI [45]: 19.5 µM
- TGI [46]: > 59.8 µM
- TGI [48]: > 55 µM
- TGI [50]: 29.7 µM
- TGI [51]: 40.8 µM
- TGI [52]: 15.6 µM
- TGI [53]: 9.61 µM
- TGI [55]: > 52.6 µM
- TGI [57]: > 60.3 µM
- TGI [59]: 65.8 µM

SMILES: C=C(C)C1CC=C(C)[C@](O)(C2(O)C[C@H](C(=C)C)CC=C2C)C1 (stereo not given in full)
- TGI [3]: > 100 µM
- TGI [4]: > 100 µM
- TGI [5]: > 100 µM
- TGI [60]: > 100 µM
- TGI [8]: > 100 µM
- TGI [10]: > 100 µM
- TGI [11]: > 100 µM
- TGI [61]: > 100 µM
- TGI [14]: > 100 µM
- TGI [17]: > 100 µM
- TGI [18]: > 100 µM
- TGI [19]: > 100 µM
- TGI [22]: > 100 µM
- TGI [23]: > 100 µM
- TGI [27]: > 100 µM
- TGI [28]: > 100 µM
- TGI [29]: > 100 µM
- TGI [30]: > 100 µM
- TGI [64]: > 100 µM
- TGI [65]: > 100 µM
- TGI [68]: > 100 µM
- TGI [37]: > 100 µM
- TGI [39]: > 100 µM
- TGI [40]: > 100 µM
- TGI [41]: > 100 µM
- TGI [44]: > 100 µM
- TGI [45]: > 100 µM
- TGI [46]: > 100 µM
- TGI [48]: > 100 µM
- TGI [50]: > 100 µM
- TGI [51]: > 100 µM
- TGI [52]: > 100 µM
- TGI [53]: > 100 µM
- TGI [55]: > 100 µM
- TGI [57]: > 100 µM

Source: PubChem BioAssay (NCI)
